Measurements: US20220248678A1, “HERBICIDAL COMPOUNDS” (SYNGENTA CROP PROTECTION AG, priority 2019, published 2022)

Assays:
Experiment in all cases: Post-emergence efficacy, glasshouse
Assay type in all cases: in vivo
Details in all cases: after 13 days, 100=total damage to plant, 0=no damage to plant
[1] = test system: Euphorbia heterophylla (EPHHL)
Experimental: (§1) Seeds of a variety of test species were shown in standard soil in pots. After cultivation for 14 days (post-emergence) under controlled conditions in a glasshouse (at 24/16° C., day/night; 14 hours light; 65% humidity), the plants were sprayed with an aqueous spray solution derived from the dissolution of the technical active ingredient for each of compounds 1 to 26 from Table A above, in a small amount of acetone and a special solvent and emulsifier mixture referred to as IF50 (11.12% Emulsogen EL360 TM+44.44% N-methylpyrrolidone+44.44% Dowanol DPM glycol ether), to create a 50 g/I solution which was then diluted to required concentration using 0.25% or 1% Empicol ESC70 (Sodium lauryl ether sulphate)+1% ammonium sulphate in water as diluent. These spray test compositions are described as composition numbers C1 to C26, with the numerical value corresponding to the compound number from Table A.
(§2) The test plants were then grown in a glasshouse under controlled conditions (at 24/16° C., day/night; 14 hours light; 65% humidity) and watered twice daily. After 13 days the test was evaluated (100=total damage to plant; 0=no damage to plant).
(§3) Ipomoea hederacea (IPOHE), Euphorbia heterophylla (EPHHL), Chenopodium album (CHEAL), Amaranthus palmeri (AMAPA), Lolium perenne (LOLPE), Digitaria sanguinalis (DIGSA), Eleusine indica (ELEIN), Echinochloa crus-galli (ECHCG), Setaria faberi (SETFA)

[2] = test system: Setaria faberi (SETFA)
Experimental: as §1, §2, §3

[3] = test system: Echinochloa crus-galli (ECHCG)
Experimental: as §1, §2, §3

[4] = test system: Ipomoea hederacea (IPOHE)
Experimental: as §1, §2, §3

[5] = test system: Digitaria sanguinalis (DIGSA)
Experimental: as §1, §2, §3

[6] = test system: Amaranthus palmeri (AMAPA)
Experimental: as §1, §2, §3

[7] = test system: Eleusine indica (ELEIN)
Experimental: as §1, §2, §3

[8] = test system: Lolium perenne (LOLPE)
Experimental: as §1, §2, §3

[9] = test system: Chenopodium album (CHEAL)
Experimental: as §1, §2, §3

Structure (SMILES)	Control of weed species EPHHL ([1]; 500 g/Ha)	Control of weed species SETFA ([2]; 500 g/Ha)	Control of weed species ECHCG ([3]; 500 g/Ha)	Control of weed species IPOHE ([4]; 500 g/Ha)	Control of weed species DIGSA ([5]; 500 g/Ha)	Control of weed species AMAPA ([6]; 500 g/Ha)	Control of weed species ELEIN ([7]; 500 g/Ha)	Control of weed species LOLPE ([8]; 500 g/Ha)	Control of weed species CHEAL ([9]; 500 g/Ha)	Control of weed species EPHHL ([1]; 1000 g/Ha)	Control of weed species SETFA ([2]; 1000 g/Ha)	Control of weed species ECHCG ([3]; 1000 g/Ha)	Control of weed species IPOHE ([4]; 1000 g/Ha)	Control of weed species DIGSA ([5]; 1000 g/Ha)	Control of weed species AMAPA ([6]; 1000 g/Ha)	Control of weed species ELEIN ([7]; 1000 g/Ha)	Control of weed species LOLPE ([8]; 1000 g/Ha)	Control of weed species CHEAL ([9]; 1000 g/Ha)
CCCOP(=O)([O-])c1c[n+](C)nc2ccccc12 [Composition C21]	100	100	70	100	100	100	100	70	100									
CCOP(=O)(O)c1c[n+](C)nc2ccccc12.O=C([O-])C(F)(F)F [Composition C1]										100	80	70	100	90	90	90	60	100
CC(C)OP(=O)([O-])c1c[n+](C)nc2ccccc12 [Composition C8]										100	90	100	100	100	100	100	50	100
COCCOP(=O)([O-])c1c[n+](C)nc2ccccc12 [Composition C10]										100	100	70	80	90	100	100	20	100
COc1ccc2n[n+](C)cc(P(=O)([O-])OC)c2c1 [Composition C16]										90	80	90	70	80	100	100	50	90
CCCCOP(=O)([O-])c1c[n+](C)nc2ccccc12 [Composition C12]	100	70	70	100	70	100	100	40	100									
COP(=O)([O-])c1c[n+](C)nc2cc(C)ccc12 [Composition C14]										100	90	70	100	80	100	100	60	100
CCCCOP(=O)(O)c1c[n+](C)nc2ccccc12.O=C([O-])C(F)(F)F [Composition C2]	100	60	30	80	60	60	40	30	70									
CC(C)COP(=O)([O-])c1c[n+](C)nc2ccccc12 [Composition C26]										100	90	60	60	60	100	90	40	90
C[n+]1cc(P(=O)([O-])OCC2CCCO2)c2ccccc2n1 (stereo not drawn) [Composition C25]										80	80	90	60	50	100	100	60	90
COP(=O)([O-])c1c[n+](C)nc2ccccc12 [Composition C27]	100	100	100	90	100	100	100	90	100									
C[n+]1cc(P(=O)([O-])OCC(F)(F)F)c2ccccc2n1 [Composition C6]										100	90	100	100	100	100	100	80	100
C[n+]1cc(P(=O)([O-])OCc2ccccc2)c2ccccc2n1 [Composition C22]	60	30	20	20	60	10	60	10	20									
COP(=O)([O-])c1c[n+](C)nc2ccc(C)cc12 [Composition C13]	100	100	90	70	100	100	100	30	100									
C[n+]1cc(P(=O)([O-])Oc2ccccc2)c2ccccc2n1 [Composition C11]										60	50	20	70	70	100	80	30	70
C=CCOP(=O)([O-])c1c[n+](C)nc2ccccc12 [Composition C5]	90	80	90	70	90	90	100	60	100									
C#CCOP(=O)([O-])c1c[n+](C)nc2ccccc12 [Composition C4]										100	100	90	100	100	100	100	90	100
